Laboratory results as given in patent publication US6172185A, “Antimicrobial cationic peptide derivatives of bactenecin” (priority 1998, dated 2001).
Where a SMILES comes first, the peptide text is derived from it. Where no end group is shown, it is not given here.

How the values were obtained:
[1] = test system: Human Red Blood Cells
[2] = test system: Staph. aureus; experiment: MIC, modified two-fold microtitre broth dilution; assay type: cell-based, Staphylococcus aureus
Excerpt: (§1) Bacterial strains for antimicrobial activity testing included Escherichia coli UB1005 and its antibiotic supersusceptible derivative DC2 (Richmond et al., Antimicrob. Agents Chemother. 10:215, 1976), Pseudomonas aeruginosa K799 and its antibiotic-supersusceptible derivative Z61 (Angus et al., Antimicrob. Agents Chemother. 21:299, 1982), Salmonella typhimurium 14028s and its defensin-supersusceptible derivative MS7953s (Fields et al., Science, 243:1059, 1989), Staphylococcus aureus ATCC25923 and a clinical isolate Staphylococcus aureus SAP1007. Other Gram-positive bacterial strains include Staphylococcus epidermidis (clinical isolate) and Enterococcus faecalis ATCC29212, Listeria monocytogenes, Corynebacterium xerosis, Streptococcus pneumoniae ATTC49619, Streptococcus pyogenes ATTC19615, Streptococcus mitis.
(§2) The minimal inhibitory concentration (MIC) of peptides was determined by a modified two-fold microtitre broth dilution method modified from that of Steinberg et al (Steinberg, Antimicrob. Agents Chemother. 41:1738, 1997). Using the classical method (Amsterdam, Antibiotics in Laboratory Medicine (Lorian, V., ed) pp. 72-78, 1991), higher concentrations of peptides tend to precipitate in the LB broth, thus the concentrations of peptides in the sequential wells are not accurate. Also the peptides stick to the most readily available (tissue-culture treated polystyrene) 96-well microtitre plates. Therefore the 2× series of dilutions was performed in Eppendoff tubes (polypropylene) before mixing with LB broth. Serial of two fold dilutions of peptides ranging from 640 μg/ml to 1.25 μg/ml were made in 0.2% BSA, 0.01% acetic acid buffer in the Eppendoff tubes. Ten μl of each concentration was added to each corresponding well of a 96-well microtiter plate (polypropylene cluster; Costar Corporation, Cambridge, Mass.). Bacteria were grown overnight and diluted 10-5 into fresh LB broth or Todd Hewitt broth for Streptococcus. LB medium contained 10 g/1l tryptone and 5 g/yeast extract, with no salt. Todd Hewitt contained 500 g/l beef heart infusion, 20 g/l bacto neopeptone, 2 g/l bacto dextrose, 2 g/l sodium chloride, 0.4 g/l disodium phosphate, 2.5 g/l sodium carbonate. One hundred […] containing about 10^4-10^5 CFU/ml of tested bacteria was added to each well. The plate was incubated at 37° C. overnight. The MIC was taken as the concentration at which greater than 90% of growth inhibition was observed.

[3] = test system: Strep. pyogenes; experiment: MIC, modified two-fold microtitre broth dilution; assay type: cell-based, Streptococcus pyogenes; details: for MIC Strep. pyogenes: Table IIIB, non-linear positive-charge modification derivatives
Excerpt: as §1, §2

[4] = test system: Strep. pneumoniae; experiment: MIC, modified two-fold microtitre broth dilution; assay type: cell-based, Streptococcus pneumoniae; details: for MIC S. pneumonia: Table IIIB, non-linear positive-charge modification derivatives
Excerpt: as §1, §2

[5] = test system: Listeria monocytogenes; experiment: MIC, modified two-fold microtitre broth dilution; assay type: cell-based
Excerpt: as §1, §2

[6] = test system: Staph. epidermidis; experiment: MIC, modified two-fold microtitre broth dilution; assay type: cell-based, Staphylococcus epidermidis
Excerpt: as §1, §2

[7] = test system: S.typhimurium; experiment: MIC, modified two-fold microtitre broth dilution; assay type: cell-based, Salmonella typhimurium
Excerpt: as §1, §2

[8] = test system: C. xerosis; experiment: MIC, modified two-fold microtitre broth dilution; assay type: cell-based, Corynebacterium xerosis
Excerpt: as §1, §2

[9] = test system: P.aeruginosa; experiment: MIC, modified two-fold microtitre broth dilution; assay type: cell-based, Pseudomonas aeruginosa
Excerpt: as §1, §2

[10] = test system: Strep. mitis; experiment: MIC, modified two-fold microtitre broth dilution; assay type: cell-based, Streptococcus mitis; details: for MIC S. mitis: Table IIIB, non-linear positive-charge modification derivatives
Excerpt: as §1, §2

[11] = test system: E.coli UB1005; experiment: MIC, modified two-fold microtitre broth dilution; assay type: cell-based, Escherichia coli
Excerpt: as §1, §2

[12] = test system: E.facaelis; experiment: MIC, modified two-fold microtitre broth dilution; assay type: cell-based, Enterococcus faecalis
Excerpt: as §1, §2

[13] = Table IIIB, non-linear positive-charge modification derivatives
[14] = table IIA, non-linear positive-charge modification derivatives
[15] = Table IID, linear (Group 2): reduced forms of the peptides, Bac (Oxidized) as comparator
[16] = Table IIC, linear (Group 2): reduced forms of the peptides, Bac (Oxidized) as comparator

Row | Compound | Minimal Agglutinating Concentration, Oxidized Form [1] [µg/mL] | MIC Staph. aureus [2, 13] [µg/mL] | MIC Staph. epidermidis [6, 13] [µg/mL] | MIC S. typhimurium [7, 14] [µg/mL] | MIC P. aeruginosa [9, 14] [µg/mL] | MIC E.coli UB1005 [11, 14] [µg/mL] | MIC E.facaelis [12, 13] [µg/mL] | other results
1 | CC[C@H](C)[C@@H]1NC(=O)[C@H](C(C)C)NC(=O)[C@H](C(C)C)NC(=O)[C@H]([C@@H](C)CC)NC(=O)[C@@H]2CCCN2C(=O)[C@@H](NC(=O)[C@H](CCCNC(=N)N)NC(=O)[C@@H](N)CCCNC(=N)N)CSSC[C@@H](C(=O)N[C@@H](CCCNC(=N)N)C(=O)O)NC(=O)[C@H](C(C)C)NC(=O)[C@H](CCCNC(=N)N)NC1=O [Bac R, P, RRCPIVVIRVCR] (HELM PEPTIDE1{R.R.C.P.I.V.V.I.R.V.C.R}$PEPTIDE1,PEPTIDE1,3:R3-11:R3$$$V2.0) | > 64 | – | – | – | – | – | – | –
2 | RRCPIVVIRVCR-NH2 (cysteine pairing not given here) [Bac R, P-NH2] | > 64 | 32 to 64 | 32 | 16 | 16 | 2 | > 64 | MIC Strep. pyogenes [3]: 16 µg/mL; MIC S. pneumonia [4]: > 64 µg/mL; MIC Listeria [5, 13]: 1 µg/mL; MIC C. xerosis [8, 13]: 2 µg/mL; MIC S. mitis [10]: 2 µg/mL
3 | RLSRIVVIRVCR-NH2 [Bac S-NH2, RLSRIVVIRVCR-NH2] | > 64 | – | – | – | – | – | – | –
4 | RRRCPIVVIRVCRR [Bac 3R, P] | 64 | > 64 | 16 | 8 | 8 | 2 | 32 | MIC Staph. aureus [2, 15]: > 64 µg/mL; MIC Strep. pyogeness [3, 15]: 16 µg/mL; MIC Strep. pyogenes [3]: 8 µg/mL; MIC Strep. pneumonia [4, 15]: > 64 µg/mL; MIC S. pneumonia [4]: > 64 µg/mL; MIC Listeria [5, 15]: 2 µg/mL; MIC Listeria [5, 13]: 0.5 µg/mL; MIC Staph. epidermidis [6, 15]: 16 µg/mL; MIC S. typhimurium [7, 16]: > 64 µg/mL; MIC C. xerosis [8, 15]: 0.5 µg/mL; MIC C. xerosis [8, 13]: 4 µg/mL; MIC P. aeruginosa [9, 16]: > 64 µg/mL; MIC Strep. mitis [10, 15]: 0.5 µg/mL; MIC S. mitis [10]: 1 µg/mL; MIC E.coli UB1005 [11, 16]: 8 µg/mL; MIC E.facaelis [12, 15]: 64 µg/mL; Minimal Agglutinating Concentration, Reduced Form [1]: 16 µg/mL
5 | RLARIVVIRVAR-NH2 [Bac 2A-NH2, RLARIVVIRVAR-NH2] | > 64 | – | – | – | – | – | – | –
6 | RLCPRVRIRVCR-NH2 (cysteine pairing not given here) [Bac 2R, P-NH2] | > 32 | > 32 | 16 | 32 | 16 | 4 | > 32 | –
7 | RICRIVVIRCIR-NH2 (cysteine pairing not given here) [Bac 2I-NH2] | 32 | 32 | 8 | 8 | 16 | 4 | > 32 | –
8 | RLSRIVVIRVSR-NH2 [Bac 2S-NH2, RLSRIVVIRVSR-NH2] | > 64 | – | – | – | – | – | – | –
